Starred links: 1 amine or outer side, 2 acyl side, 3 side chain; linkers in the order of their positions; H or OH if unused. Non-standard residues stand in square brackets, D forms with d. Residues, ends and D or L forms follow the SMILES beside them. Groups on a side chain read outwards from the residue. *: point of attachment. C18 diacid = O=C(O)CCCCCCCCCCCCCCCCC(=O)*; γGlu = O=C(O)[C@H](CCC(=O)[*:2])N[*:1]; αMeF = C[C@](N)(Cc1ccccc1)C(=O)O; AEEA = NCCOCCOCC(=O)O; Aib = CC(C)(N)C(=O)O
Legend:
[1] = biological target: human GLP-1 receptor (hGLP-1R) (Homo sapiens, UniProt P43220); experiment: cAMP production (HTRF) in CHO cells expressing hGLP-1R; assay type: cell-based; parameters: expressed in transfected cells; settings: for EC50: Table 7, peptides modified at position 20, cAMP in CHO hGLP-1R cells, geometric mean, read-out: hGLP-1R EC50; for % Relative Potency Ratio: Table 7, % GLP-1R activity relative to GLP-1 / % GlucR activity relative to glucagon
Summary of the method: (§1)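 Potency values represent EC50 from 4-parameter logistic curves of HTRF % Delta F signal. Receptor-expressing CHO cells (hGCGR 2×10^5 cells/mL, hGLP-1R 1×10^5 cells/mL) were exposed for 30 min at room temperature before two-step cAMP detection.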

[2] = biological target: human glucagon receptor (hGCGR) (Homo sapiens, UniProt P47871); experiment: cAMP production (HTRF) in CHO cells expressing hGCGR; assay type: cell-based; parameters: expressed in transfected cells; settings: Table 7, peptides modified at position 20; cAMP in CHO hGCGR cells; geometric mean; read-out: hGluc-R EC50
Summary of the method: as §1

Sequence of human GLP-1 receptor (hGLP-1R) (P43220 24-463): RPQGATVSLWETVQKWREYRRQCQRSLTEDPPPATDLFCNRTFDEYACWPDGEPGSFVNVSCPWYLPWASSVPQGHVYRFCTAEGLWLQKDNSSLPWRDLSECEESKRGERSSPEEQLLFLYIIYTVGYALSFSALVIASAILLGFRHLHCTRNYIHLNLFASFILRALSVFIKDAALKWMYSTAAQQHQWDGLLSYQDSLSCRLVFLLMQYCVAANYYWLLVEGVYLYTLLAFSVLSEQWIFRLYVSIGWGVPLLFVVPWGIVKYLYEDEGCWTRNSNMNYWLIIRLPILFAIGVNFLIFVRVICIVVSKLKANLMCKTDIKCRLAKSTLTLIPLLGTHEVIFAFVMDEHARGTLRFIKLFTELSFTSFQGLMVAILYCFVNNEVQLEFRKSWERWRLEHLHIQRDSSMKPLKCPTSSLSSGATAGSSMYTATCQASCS
Sequence of human glucagon receptor (hGCGR) (P47871 26-477): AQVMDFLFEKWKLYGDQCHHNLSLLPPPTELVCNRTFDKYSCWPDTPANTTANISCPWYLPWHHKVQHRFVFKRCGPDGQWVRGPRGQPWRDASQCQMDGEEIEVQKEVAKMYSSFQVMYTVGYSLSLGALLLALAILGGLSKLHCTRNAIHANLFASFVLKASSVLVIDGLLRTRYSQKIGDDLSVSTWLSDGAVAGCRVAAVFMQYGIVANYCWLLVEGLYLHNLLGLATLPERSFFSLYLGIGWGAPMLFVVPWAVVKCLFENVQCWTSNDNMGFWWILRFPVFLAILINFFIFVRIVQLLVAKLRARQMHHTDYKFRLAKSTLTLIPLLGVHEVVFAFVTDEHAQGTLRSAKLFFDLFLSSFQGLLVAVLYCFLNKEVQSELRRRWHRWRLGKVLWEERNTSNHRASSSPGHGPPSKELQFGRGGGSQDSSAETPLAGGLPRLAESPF

Row | EC50 [1] [pM] | % Relative Potency Ratio [1] | EC50 [2] [pM] | Compound
1 | 47.2 | 32.5 | 775 | CC[C@H](C)[C@H](NC(=O)[C@H](Cc1c[nH]c2ccccc12)NC(=O)[C@H](CCC(=O)O)NC(=O)[C@@H](NC(=O)[C@H](Cc1ccccc1)NC(=O)[C@H](CC(=O)O)NC(=O)[C@H](CCCCNC(=O)COCCOCCNC(=O)COCCOCCNC(=O)CC[C@H](NC(=O)CCCCCCCCCCCCCCCCC(=O)O)C(=O)O)NC(=O)[C@H](C)NC(=O)[C@H](C)NC(=O)[C@H](CCCNC(=N)N)NC(=O)[C@H](CO)NC(=O)[C@H](CC(=O)O)NC(=O)[C@H](CC(C)C)NC(=O)[C@](C)(Cc1ccccc1)NC(=O)[C@H](CCCCN)NC(=O)[C@H](CO)NC(=O)[C@@H](NC(=O)[C@H](CC(=O)O)NC(=O)[C@H](CO)NC(=O)[C@@H](NC(=O)[C@H](Cc1ccccc1)NC(=O)[C@@H](NC(=O)CNC(=O)[C@H](CCC(N)=O)NC(=O)C(C)(C)NC(=O)[C@@H](N)Cc1c[nH]cn1)[C@@H](C)O)[C@@H](C)O)C(C)C)C(C)C)C(=O)N[C@@H](C)C(=O)N[C@@H](CC(N)=O)C(=O)N[C@H](C(N)=O)[C@@H](C)O [Peptide 306]
2 | 22.2 | 100.5 | 1130 | CC[C@H](C)[C@H](NC(=O)[C@H](Cc1c[nH]c2ccccc12)NC(=O)[C@H](CCCNC(=N)N)NC(=O)[C@@H](NC(=O)[C@H](Cc1ccccc1)NC(=O)[C@H](CC(=O)O)NC(=O)[C@H](CCCCNC(=O)COCCOCCNC(=O)COCCOCCNC(=O)CC[C@H](NC(=O)CCCCCCCCCCCCCCCCC(=O)O)C(=O)O)NC(=O)[C@H](C)NC(=O)[C@H](C)NC(=O)[C@H](CCCNC(=N)N)NC(=O)[C@H](CO)NC(=O)[C@H](CC(=O)O)NC(=O)[C@H](CC(C)C)NC(=O)[C@](C)(Cc1ccccc1)NC(=O)[C@H](CCCCN)NC(=O)[C@H](CO)NC(=O)[C@@H](NC(=O)[C@H](CC(=O)O)NC(=O)[C@H](CO)NC(=O)[C@@H](NC(=O)[C@H](Cc1ccccc1)NC(=O)[C@@H](NC(=O)CNC(=O)[C@H](CCC(N)=O)NC(=O)C(C)(C)NC(=O)[C@@H](N)Cc1c[nH]cn1)[C@@H](C)O)[C@@H](C)O)C(C)C)C(C)C)C(=O)N[C@@H](C)C(=O)N[C@@H](CC(N)=O)C(=O)N[C@H](C(N)=O)[C@@H](C)O [Peptide 307]
3 | 27.5 | 123.4 | 1720 | CC[C@H](C)[C@H](NC(=O)[C@H](Cc1c[nH]c2ccccc12)NC(=O)[C@H](CCC(N)=O)NC(=O)[C@@H](NC(=O)[C@H](Cc1ccccc1)NC(=O)[C@H](CC(=O)O)NC(=O)[C@H](CCCCNC(=O)COCCOCCNC(=O)COCCOCCNC(=O)CC[C@H](NC(=O)CCCCCCCCCCCCCCCCC(=O)O)C(=O)O)NC(=O)[C@H](C)NC(=O)[C@H](C)NC(=O)[C@H](CCCNC(=N)N)NC(=O)[C@@H](NC(=O)[C@H](CC(=O)O)NC(=O)[C@H](CC(C)C)NC(=O)[C@](C)(Cc1ccccc1)NC(=O)[C@H](CCCCN)NC(=O)[C@H](CO)NC(=O)[C@@H](NC(=O)[C@H](CC(=O)O)NC(=O)[C@H](CO)NC(=O)[C@@H](NC(=O)[C@H](Cc1ccccc1)NC(=O)[C@@H](NC(=O)CNC(=O)[C@H](CCC(N)=O)NC(=O)C(C)(C)NC(=O)[C@@H](N)Cc1c[nH]cn1)[C@@H](C)O)[C@@H](C)O)C(C)C)[C@@H](C)O)C(C)C)C(=O)N[C@@H](C)C(=O)N[C@@H](CC(N)=O)C(=O)N[C@H](C(N)=O)[C@@H](C)O [Peptide 308] (H-H[Aib]QGTFTSDVSK[αMeF]LDTRAAK([AEEA-AEEA-γGlu-C18 diacid])DFVQWIANT-NH2; N-terminus assumed)
4 | 70.6 | 486.8 | 17400 | CC[C@H](C)[C@H](NC(=O)[C@H](Cc1c[nH]c2ccccc12)NC(=O)[C@H](CCC(N)=O)NC(=O)[C@@H](NC(=O)[C@H](Cc1ccccc1)NC(=O)[C@H](CC(=O)O)NC(=O)[C@H](CCCCNC(=O)COCCOCCNC(=O)COCCOCCNC(=O)CC[C@H](NC(=O)CCCCCCCCCCCCCCCCC(=O)O)C(=O)O)NC(=O)[C@H](C)NC(=O)[C@H](C)NC(=O)[C@H](CCCNC(=N)N)NC(=O)[C@H](CCC(=O)O)NC(=O)[C@H](CC(=O)O)NC(=O)[C@H](CC(C)C)NC(=O)[C@](C)(Cc1ccccc1)NC(=O)[C@H](CCCCN)NC(=O)[C@H](CO)NC(=O)[C@@H](NC(=O)[C@H](CC(=O)O)NC(=O)[C@H](CO)NC(=O)[C@@H](NC(=O)[C@H](Cc1ccccc1)NC(=O)[C@@H](NC(=O)CNC(=O)[C@H](CCC(N)=O)NC(=O)C(C)(C)NC(=O)[C@@H](N)Cc1c[nH]cn1)[C@@H](C)O)[C@@H](C)O)C(C)C)C(C)C)C(=O)N[C@@H](C)C(=O)N[C@@H](CC(N)=O)C(=O)N[C@H](C(N)=O)[C@@H](C)O [Peptide 309]
5 | 56.4 | 64.4 | 1840 | CC(C)C[C@H](NC(=O)[C@H](Cc1c[nH]c2ccccc12)NC(=O)[C@H](CCC(N)=O)NC(=O)[C@@H](NC(=O)[C@H](Cc1ccccc1)NC(=O)[C@H](CC(=O)O)NC(=O)[C@H](CCCCNC(=O)COCCOCCNC(=O)COCCOCCNC(=O)CC[C@H](NC(=O)CCCCCCCCCCCCCCCCC(=O)O)C(=O)O)NC(=O)[C@H](C)NC(=O)[C@H](C)NC(=O)[C@H](CCCNC(=N)N)NC(=O)[C@H](CO)NC(=O)[C@H](CC(=O)O)NC(=O)[C@H](CC(C)C)NC(=O)[C@](C)(Cc1ccccc1)NC(=O)[C@H](CCCCN)NC(=O)[C@H](CO)NC(=O)[C@@H](NC(=O)[C@H](CC(=O)O)NC(=O)[C@H](CO)NC(=O)[C@@H](NC(=O)[C@H](Cc1ccccc1)NC(=O)[C@@H](NC(=O)CNC(=O)[C@H](CCC(N)=O)NC(=O)C(C)(C)NC(=O)[C@@H](N)Cc1c[nH]cn1)[C@@H](C)O)[C@@H](C)O)C(C)C)C(C)C)C(=O)N[C@@H](CCC(=O)O)C(=O)N[C@@H](C)C(=O)NCC(=O)NCC(N)=O [Peptide 310]
6 | 35.1 | 26.4 | 469 | CC(C)C[C@H](NC(=O)[C@H](Cc1c[nH]c2ccccc12)NC(=O)[C@H](CCC(N)=O)NC(=O)[C@@H](NC(=O)[C@H](Cc1ccccc1)NC(=O)[C@H](CC(=O)O)NC(=O)[C@H](CCCCNC(=O)COCCOCCNC(=O)COCCOCCNC(=O)CC[C@H](NC(=O)CCCCCCCCCCCCCCCCC(=O)O)C(=O)O)NC(=O)[C@H](C)NC(=O)[C@H](C)NC(=O)[C@H](CCCNC(=N)N)NC(=O)[C@H](CO)NC(=O)[C@H](CC(=O)O)NC(=O)[C@H](CC(C)C)NC(=O)[C@](C)(Cc1ccccc1)NC(=O)[C@H](CCCCN)NC(=O)[C@H](CO)NC(=O)[C@@H](NC(=O)[C@H](CC(=O)O)NC(=O)[C@H](CO)NC(=O)[C@@H](NC(=O)[C@H](Cc1ccccc1)NC(=O)[C@@H](NC(=O)CNC(=O)[C@H](CCC(N)=O)NC(=O)C(C)(C)NC(=O)[C@@H](N)Cc1c[nH]cn1)[C@@H](C)O)[C@@H](C)O)C(C)C)C(C)C)C(=O)N[C@H](C(=O)N[C@@H](CCC(=O)O)C(=O)N[C@H](C(N)=O)[C@@H](C)O)C(C)C [Peptide 311]

— patent publication US20250353891A1 (MEDIMMUNE LIMITED, priority 2022, published 2025)
